Experimental data taken from patent USRE50301E1, “Depot systems comprising glatiramer or pharmacologically acceptable salt thereof” (MAPI PHARMA LTD., priority 2010, dated 2025).

Tested on: MOG-induced chronic EAE in C57BL/6 mice
Assay type: in vivo
Source text: The effect of the two formulations on MOG (myelin-oligodendrocyte-glycoprotein)-induced chronic EAE in C57BL/6 mice was examined according to the procedure described below.
Forty (40) female C57BL/6 mice had been randomly grouped into three (3) groups by body weight in this study; each group consisted of ten (10) mice. […] EAE had been induced by injection of emulsion of MOG subcutaneously on the shaved back of the mouse at three sites, followed by an intraperitoneal injection of Bordetella pertussis toxin in PBS on Day 0 and 48 hours post MOG immunization. EAE had been assessed by clinical scoring of the mice once daily from Day 0 to Day 14 post immunization. […] On Day 14, mice had been terminated.
After anesthetization by isoflurane (2-3%, inhalation), EAE had been induced by injecting 100 μL emulsion subcutaneously into the shaved backs of the mice. Bordetella pertussis toxin (200 ng in 200 μL of PBS) had been administered i.p. on the day of immunization (Day 0) and 48 hours thereafter. […]
Body weight of all mice had been recorded daily starting from Day 0 to Day 14. EAE development had been assessed by clinically scoring of the mice once daily from Day 0 to Day 14 post immunization according to a scale of 0-5 (0=normal mouse; 1=limp tail or hind limb weakness; 2=limp tail and hind limb weakness; 3=partial hind limb paralysis; 4=complete hind limb paralysis; and 5=moribund state). […]

“L-glutamic acid polymer with L-alanine, L-lysine and L-tyrosine, acetate (salt) [GA]” gave a Maximum score (clinical score scale 0-5, days 0-14, 5 mg GA/mice/day i.m. on day 0 and day 1) of 0.5 ± 0.31 and a Disease duration (days 0-14, 5 mg GA/mice/day i.m. on day 0 and day 1) of 0.5 ± 0.31.
